US20120094295A1, “NEURODEGENERATIVE DISEASE DIAGNOSTIC COMPOSITIONS AND METHODS OF USE” (The Johns Hopkins University, priority 2008, published 2012)
Read-outs that look alike come from different tables or passages of the source. Blank lines part the entries; values can stand above or below the compound they belong to.

Legend:
[1] = Human plasma pharmacokinetics of thiamphenicol in healthy volunteers; assay type: in vivo; conditions: for AUC / Cmax / half-life / Tmax: human, plasma, po
[2] = Safety and tolerability in healthy volunteers; assay type: in vivo, human; conditions: 750 or 1500 mg once a day oral, 14 days
Method: Thirty-four normal volunteers were divided into three groups: placebo (N=6), TAP 750 mg administered orally once a day (N=12) and TAP 1500 mg administered orally once a day (N=12). Nasal biopsies were taken on day −1 (before drug treatment) and day 14. Plasma pharmacokinetics were done on day 1 and 13 and cerebrospinal fluid samples were taken on day 13 to study the levels of TAP in the brain.
R UX122 was administered in 3 groups (placebo, 750 mg/day, 1500 mg/day) starting day 1 to day 14. Blood samples were taken throughout the trial period to obtain basic pharmacokinetic analyses as well as to monitor for safety and tolerability. Every patient underwent a spinal tap to collect CSF on day 13.

EAAT1 mRNA = experiment: qPCR of nasal biopsy samples before and after drug treatment; assay type: in vivo, human; conditions: healthy volunteers, 750 or 1500 mg once a day oral, day 14 vs day -1
Method: (§1) Nasal biopsies were performed the day before the beginning of drug treatment (day −1) and on day 14. mRNA levels of several genes were quantified by qPCR analysis. Data are presented as fold increases in mRNA levels after drug treatment for each individual patient.
(§2) Nasal biopsies were taken on day −1 (before drug treatment) and day 14. […] In addition to EAAT2, the mRNA levels of the following genes were measured: GFAP (astrocytic expression in CNS), EAAT1 (astrocytic expression in CNS, expressed in precursor neuronal cells in olfactory epithelium), OMP (neuronal expression in olfactory epithelium and CNS), and MCT-4. […] The intra-patient variability was obtained by comparing mRNA levels obtained from the left and right side of the nose of each volunteer. This was important since the drug study was designed to obtain a biopsy from one side of the nose before drug treatment and from the opposite side of the nose after drug treatment. This allowed each person to serve as their own control and provided an opportunity to follow changes in mRNA levels within individuals.
(§3) Human nasal biopsies were performed by otolaryngologists specializing in sinus surgery. […] Local anesthesia was used for the procedure. Local anesthesia was applied to the nasal cavity. Lidocaine liquid 4% (Xylocaine®) and oxymetazoline HCl 0.05% (Afrin®) was sprayed in the nose. Then, if needed, 1% lidocaine with 1/100,000 epinephrine was injected to provide both anesthesia and vasoconstriction.
(§4) The procedure was performed under endoscopic control and used either a small curette or biting forceps for tissue removal. To avoid trauma to the cribriform plate, the biopsies were usually taken from the upper nasal septum. […] The tissue was removed from either the front or the back of the olfactory cleft, and sometimes both. Up to two blocks of tissue (approximately 2 mm each) were collected from each side of the nose. […] Subjects were instructed not to blow their nose and not to perform any strenuous physical activity for 24 hours after the procedure.
(§5) Healthy volunteers underwent a nasal biopsy on day −1 on one side of the nose only. R UX122 was administered in 3 groups (placebo, 750 mg/day, 1500 mg/day) starting day 1 to day 14. Blood samples were taken throughout the trial period to obtain basic pharmacokinetic analyses as well as to monitor for safety and tolerability. […] On day 14, a nasal biopsy was done on the other side of the nose.
(§6) Total RNA was reversed transcribed using Applied Biosystems' high capacity cDNA archive kit. The quantitative real time RT-PCR assay was performed using the iCycler iQ Real-Time Detection System from BioRad. TaqMan Probes, which allow for specific mRNA amplification, were purchased from Applied Biosystems.

EAAT2/GLT-1 mRNA = experiment: as above; assay type: in vivo, human; conditions: healthy volunteers, 750 or 1500 mg once a day oral, day 14 vs day -1
Method: as §1, §2, §3, §4, §5, §6

GFAP mRNA = experiment: as above; assay type: in vivo, human; conditions: healthy volunteers, 750 or 1500 mg once a day oral, day 14 vs day -1
Method: as §1, §2, §3, §4, §5, §6

MCT-4 mRNA = experiment: as above; assay type: in vivo, human; conditions: healthy volunteers, 750 or 1500 mg once a day oral, day 14 vs day -1
Method: as §1, §2, §3, §4, §5, §6

OMP mRNA = experiment: as above; assay type: in vivo, human; conditions: healthy volunteers, 750 or 1500 mg once a day oral, day 14 vs day -1
Method: as §1, §2, §3, §4, §5, §6

EAAT2 promoter = EAAT2 promoter luciferase reporter gene assay in immortalized astrocytes; assay type: cell-based, human; conditions: luciferase reporter driven by 2.5 kB EAAT2 promoter fragment, 72 hours
Method: (§7) FIG. 3A is a graph showing EAAT2 promoter activation. EAAT2 promoter activation was examined by measuring luciferase activity using a reporter gene construct driven by a 2.5 kB promoter fragment of EAAT2 (Rothstein et al., Nature. 2005 Jan. 6; 433(7021):73-7). […] Glutamate-uptake was measured using standard techniques. […] Cells were then exposed to an oxygen-glucose-free environment for 1.5 hours (Goldberg et al). After the oxygen-glucose deprivation, cells were washed back into normal artificial cerebral spinal fluid (ACSF) solution and maintained for another 23 hours at 37 C, 5% CO2. Neuronal cell death was determined by measuring […] (LDH) release. Cells treated with MK-801, 6-cyano-7-nitroquinoxaline-2,3-dione), (CNQX) and nimodipine (MCN) were used as a positive control for neuroprotective activity.

glutamate uptake = experiment: Glutamate uptake in primary cultures of neurons and astrocytes; assay type: cell-based; conditions: primary mouse cultures of neurons and astrocytes, 72 hours
Method: as §7

[3] = tested on: primary mouse cultures of neurons and astrocytes; experiment: Oxygen-glucose deprivation (OGD) assay, neuronal cell death by LDH release; assay type: cell-based; conditions: 72 hours treatment, then oxygen-glucose deprivation 1.5 hours
Method: as §7

GLT-1 mRNA = GLT-1 mRNA in treated wild-type mice; assay type: in vivo, mouse; conditions: WT mice, 12.5 or 25 mg/kg/day oral, 10 days
Method: as §6

EAAT2/GLT-1 = EAAT2/GLT-1 gene expression in nasal olfactory epithelium; conditions: in vivo
[4] = tested on: glutamate transporter EAAT2/GLT-1; experiment: Glutamate transporter function in vitro and in vivo
[5] = human, in vivo

plasma concentrations versus dose ([1]; 750 and 1500 mg/day oral): dose-related plasma concentrations
drug accumulation ([1]; 14 days once daily oral): no drug accumulation
AUC ([1]; 750 mg/day, oral 750 mg/day, Day 1): 42600 ng·h/mL
Cmax ([1]; 750 mg/day, oral 750 mg/day, Day 1, plasma): 6310 ng/mL
half-life ([1]; 750 mg/day, oral 750 mg/day, Day 1, read-out: T ½ (converted)): 4.1 ± 0.8 h
Tmax ([1]; 750 mg/day, oral 750 mg/day, Day 1, read-out: Tmax median(range)): 2 h
AUC ([1]; 750 mg/day, oral 750 mg/day, Day 13): 51100 ng·h/mL
Cmax ([1]; 750 mg/day, oral 750 mg/day, Day 13, plasma): 6550 ng/mL
half-life ([1]; 750 mg/day, oral 750 mg/day, Day 13, read-out: T ½ (converted)): 4.8 ± 0.6 h
Tmax ([1]; 750 mg/day, oral 750 mg/day, Day 13, read-out: Tmax median(range)): 2 h
AUC ([1]; 1500 mg/day, oral 1500 mg/day, Day 1): 88000 ng·h/mL
Cmax ([1]; 1500 mg/day, oral 1500 mg/day, Day 1, plasma): 10700 ng/mL
half-life ([1]; 1500 mg/day, oral 1500 mg/day, Day 1, read-out: T ½ (converted)): 4.2 ± 0.5 h
Tmax ([1]; 1500 mg/day, oral 1500 mg/day, Day 1, read-out: Tmax median(range)): 2.5 h
AUC ([1]; 1500 mg/day, oral 1500 mg/day, Day 13): 96700 ng·h/mL
Cmax ([1]; 1500 mg/day, oral 1500 mg/day, Day 13, plasma): 11000 ng/mL
half-life ([1]; 1500 mg/day, oral 1500 mg/day, Day 13, read-out: T ½ (converted)): 5.7 ± 1 h
Tmax ([1]; 1500 mg/day, oral 1500 mg/day, Day 13, read-out: Tmax median(range)): 2 h
half-life ([1]; 750 and 1500 mg/day oral, read-out: average half life): 4 to 6 h
correlation between plasma concentrations and CSF levels [5]: linear correlation
SMILES: CS(=O)(=O)c1ccc([C@@H](O)[C@@H](CO)NC(=O)C(Cl)Cl)cc1 [TAP, thiamphenicol]
serious adverse side-effects [2]: no serious adverse side-effects were reported
tolerability [2]: well tolerated at every dose
EAAT1 mRNA levels in olfactory epithelium after drug treatment (EAAT1 mRNA): no difference in mRNA levels
EAAT1 mRNA levels in olfactory epithelium after drug treatment (EAAT1 mRNA; listed as thiamphenicol): no change in gene expression levels
EAAT2/GLT-1 mRNA levels in olfactory epithelium after drug treatment (EAAT2/GLT-1 mRNA): dose-dependent positive trend towards an increase in mRNA levels
EAAT2/GLT-1 mRNA levels in olfactory epithelium after drug treatment (EAAT2/GLT-1 mRNA; listed as thiamphenicol): positive trend towards increased gene expression levels
GFAP mRNA levels in olfactory epithelium after drug treatment (GFAP mRNA): dose-dependent positive trend towards an increase in mRNA levels
GFAP mRNA levels in olfactory epithelium after drug treatment (GFAP mRNA; listed as thiamphenicol): positive trend towards increased gene expression levels
MCT-4 mRNA levels in olfactory epithelium after drug treatment (MCT-4 mRNA): no difference in mRNA levels
MCT-4 mRNA levels in olfactory epithelium after drug treatment (MCT-4 mRNA; listed as thiamphenicol): no change in gene expression levels
OMP mRNA levels in olfactory epithelium after drug treatment (OMP mRNA): no difference in mRNA levels
OMP mRNA levels in olfactory epithelium after drug treatment (OMP mRNA; listed as thiamphenicol): no change in gene expression levels
EAAT2 promoter activation (EAAT2 promoter): activated the transporter on a promoter level
glutamate uptake (glutamate uptake): dose-dependently increased glutamate uptake
neuroprotection (neuronal cell death, LDH release) [3]: dose-dependent neuroprotection
GLT-1 mRNA (GLT-1 mRNA): dose-dependently increased
EAAT2/GLT-1 gene expression in nasal olfactory epithelium (EAAT2/GLT-1): increased EAAT2/GLT-1 gene expression in nasal olfactory epithelium
glutamate transporter function [4]: increased transporter function in vitro and in vivo

SMILES: CO/N=C(\C(=O)N[C@@H]1C(=O)N2C(C(=O)O)=C(CSc3nc(=O)c(=O)[nH]n3C)CS[C@H]12)c1csc(N)n1 [ceftriaxone]
EAAT2 promoter activation (EAAT2 promoter): activated the transporter on a promoter level
EAAT2/GLT-1 gene expression in nasal olfactory epithelium (EAAT2/GLT-1): increased EAAT2/GLT-1 gene expression in nasal olfactory epithelium
glutamate transporter function [4]: increased transporter function in vitro and in vivo
